Holding throughout (experiment): Cysteine liganding, probe competition
Holding throughout (type): binding

Assay [1] deals with T1, UniProt O00623 (Homo sapiens, UniProt O00623).
T1 construct: 200 μL of lysate containing 5 mg/ml proteome was treated with 2 μL of 100× compound stock; endogenous in cells
The text has this:
(§1) The following 96-well sample prep protocol was used for sample preparation.

In assay [2] the target is T2, UniProt Q496Y0 (Homo sapiens, UniProt Q496Y0).
T2 construct: 200 μL of lysate containing 5 mg/ml proteome was treated with 2 μL of 100× compound stock; endogenous in cells
Description: as §1

The target of assay [3] is T3, UniProt Q6ZNB6 (Homo sapiens, UniProt Q6ZNB6).
T3 construct: Cells were resuspended in cold PBS on ice and sonicated with a probe sonicator to achieve lysis; endogenous in cells
T3 sequence (Q6ZNB6 1-911): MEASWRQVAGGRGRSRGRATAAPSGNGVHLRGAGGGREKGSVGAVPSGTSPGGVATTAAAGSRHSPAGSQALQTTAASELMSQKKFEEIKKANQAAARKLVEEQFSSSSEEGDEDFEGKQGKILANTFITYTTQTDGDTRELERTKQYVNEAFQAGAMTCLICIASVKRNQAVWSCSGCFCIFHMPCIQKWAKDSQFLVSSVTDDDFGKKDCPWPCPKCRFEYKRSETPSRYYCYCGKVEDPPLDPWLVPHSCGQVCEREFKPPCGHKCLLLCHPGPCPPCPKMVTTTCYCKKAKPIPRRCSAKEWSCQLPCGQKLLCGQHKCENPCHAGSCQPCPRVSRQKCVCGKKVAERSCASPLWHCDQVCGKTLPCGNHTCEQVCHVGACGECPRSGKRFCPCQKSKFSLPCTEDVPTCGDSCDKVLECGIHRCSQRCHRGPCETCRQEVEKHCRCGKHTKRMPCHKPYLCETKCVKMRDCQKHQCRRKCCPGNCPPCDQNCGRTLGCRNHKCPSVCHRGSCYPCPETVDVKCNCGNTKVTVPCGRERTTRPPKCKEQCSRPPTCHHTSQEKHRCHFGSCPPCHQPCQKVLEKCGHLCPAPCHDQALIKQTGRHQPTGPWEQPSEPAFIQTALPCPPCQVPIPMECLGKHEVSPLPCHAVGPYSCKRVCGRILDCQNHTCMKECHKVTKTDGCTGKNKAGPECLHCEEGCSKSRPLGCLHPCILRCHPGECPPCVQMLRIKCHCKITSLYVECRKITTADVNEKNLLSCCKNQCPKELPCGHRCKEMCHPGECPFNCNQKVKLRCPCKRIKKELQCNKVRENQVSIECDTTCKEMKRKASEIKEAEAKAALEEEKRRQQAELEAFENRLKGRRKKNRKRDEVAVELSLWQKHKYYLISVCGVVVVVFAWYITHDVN
As to conditions: for percent inhibition: 100 uM.
Description: as §1

Assay [4] has as its target T4, UniProt Q9BSL1 (Homo sapiens, UniProt Q9BSL1).
T4 construct: 200 μL of lysate containing 5 mg/ml proteome was treated with 2 μL of 100× compound stock; endogenous in cells
T4 sequence (Q9BSL1 1-405): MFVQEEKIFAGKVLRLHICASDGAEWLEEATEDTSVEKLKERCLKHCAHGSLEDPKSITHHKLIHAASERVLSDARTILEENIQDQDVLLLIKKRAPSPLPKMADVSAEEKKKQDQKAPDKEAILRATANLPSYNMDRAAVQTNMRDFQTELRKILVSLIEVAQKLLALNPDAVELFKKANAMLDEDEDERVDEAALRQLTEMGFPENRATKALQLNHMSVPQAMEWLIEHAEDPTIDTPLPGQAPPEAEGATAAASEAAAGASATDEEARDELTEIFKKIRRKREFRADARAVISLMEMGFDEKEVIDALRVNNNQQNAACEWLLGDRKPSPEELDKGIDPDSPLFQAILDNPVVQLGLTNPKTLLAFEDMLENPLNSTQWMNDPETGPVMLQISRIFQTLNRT
Description: as §1

The target in assay [5] is T5, UniProt Q96EH8 (Homo sapiens, UniProt Q96EH8).
T5 construct: Cells were resuspended in cold PBS on ice and sonicated with a probe sonicator to achieve lysis; endogenous in cells
T5 sequence (Q96EH8 1-262): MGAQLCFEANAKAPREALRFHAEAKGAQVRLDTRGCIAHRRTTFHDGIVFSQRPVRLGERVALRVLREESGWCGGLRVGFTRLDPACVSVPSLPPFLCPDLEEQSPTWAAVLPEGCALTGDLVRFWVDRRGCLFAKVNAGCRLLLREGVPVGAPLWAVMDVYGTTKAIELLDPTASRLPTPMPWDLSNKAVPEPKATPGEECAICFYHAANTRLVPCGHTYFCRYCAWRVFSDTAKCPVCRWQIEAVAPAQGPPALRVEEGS
As to conditions: for inhibition at 500 µM: read-out: percent inhibition.
Description: as §1

In assay [6] the target is T6, UniProt Q96JY6 (Homo sapiens, UniProt Q96JY6).
T6 construct: 200 μL of lysate containing 5 mg/ml proteome was treated with 2 μL of 100× compound stock; endogenous in cells
T6 sequence (Q96JY6 1-352): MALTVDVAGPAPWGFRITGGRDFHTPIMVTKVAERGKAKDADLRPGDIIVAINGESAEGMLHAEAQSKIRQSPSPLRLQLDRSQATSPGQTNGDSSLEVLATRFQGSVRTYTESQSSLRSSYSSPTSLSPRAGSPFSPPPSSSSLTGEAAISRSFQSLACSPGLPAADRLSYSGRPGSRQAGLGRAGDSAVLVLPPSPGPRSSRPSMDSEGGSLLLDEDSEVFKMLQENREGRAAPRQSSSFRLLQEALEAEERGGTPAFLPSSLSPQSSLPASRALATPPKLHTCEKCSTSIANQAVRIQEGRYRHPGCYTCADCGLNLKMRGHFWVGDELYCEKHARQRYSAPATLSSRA
Description: as §1

Assay [7] deals with T7, UniProt Q9H0F6 (Homo sapiens, UniProt Q9H0F6).
T7 construct: 200 μL of lysate containing 5 mg/ml proteome was treated with 2 μL of 100× compound stock; endogenous in cells
As to conditions: read-out: percent_inhibition.
Description: as §1

The mark [8] stands for this setting: 500 uM, read-out: KB05_500 uM_percent_inhibition.

Read-outs that look alike come from different tables or passages of the source.

T2 sequence (Q496Y0 whole entry, change not shown): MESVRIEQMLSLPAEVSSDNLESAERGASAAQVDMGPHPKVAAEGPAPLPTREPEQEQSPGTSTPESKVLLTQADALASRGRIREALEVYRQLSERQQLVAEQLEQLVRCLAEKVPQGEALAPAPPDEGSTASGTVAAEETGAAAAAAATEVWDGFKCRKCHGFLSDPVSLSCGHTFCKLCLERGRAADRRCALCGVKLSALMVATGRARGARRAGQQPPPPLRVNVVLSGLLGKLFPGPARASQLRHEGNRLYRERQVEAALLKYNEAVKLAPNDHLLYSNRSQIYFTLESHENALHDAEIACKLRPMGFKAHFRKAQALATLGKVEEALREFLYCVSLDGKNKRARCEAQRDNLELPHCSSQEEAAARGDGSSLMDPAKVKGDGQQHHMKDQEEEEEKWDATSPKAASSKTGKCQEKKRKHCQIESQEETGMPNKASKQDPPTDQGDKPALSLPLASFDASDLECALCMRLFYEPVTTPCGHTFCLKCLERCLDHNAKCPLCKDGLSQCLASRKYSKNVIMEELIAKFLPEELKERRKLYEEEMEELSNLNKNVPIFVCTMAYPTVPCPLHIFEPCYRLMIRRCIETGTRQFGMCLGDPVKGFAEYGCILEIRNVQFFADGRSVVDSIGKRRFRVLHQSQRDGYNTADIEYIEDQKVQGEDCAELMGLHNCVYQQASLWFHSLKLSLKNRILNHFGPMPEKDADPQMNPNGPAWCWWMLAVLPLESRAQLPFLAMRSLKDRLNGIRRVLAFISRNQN
T1 sequence (O00623 whole entry, change not shown): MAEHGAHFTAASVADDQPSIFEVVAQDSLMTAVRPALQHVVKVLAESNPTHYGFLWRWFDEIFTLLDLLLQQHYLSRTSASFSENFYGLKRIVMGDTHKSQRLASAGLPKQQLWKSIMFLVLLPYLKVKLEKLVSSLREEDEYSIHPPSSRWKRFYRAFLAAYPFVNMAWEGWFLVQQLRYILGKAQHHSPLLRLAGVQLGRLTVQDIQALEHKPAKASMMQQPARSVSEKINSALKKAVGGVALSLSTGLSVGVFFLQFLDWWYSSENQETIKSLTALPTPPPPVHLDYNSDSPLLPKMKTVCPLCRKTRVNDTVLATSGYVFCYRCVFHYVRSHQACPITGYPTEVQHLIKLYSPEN
T7 sequence (Q9H0F6 whole entry, change not shown): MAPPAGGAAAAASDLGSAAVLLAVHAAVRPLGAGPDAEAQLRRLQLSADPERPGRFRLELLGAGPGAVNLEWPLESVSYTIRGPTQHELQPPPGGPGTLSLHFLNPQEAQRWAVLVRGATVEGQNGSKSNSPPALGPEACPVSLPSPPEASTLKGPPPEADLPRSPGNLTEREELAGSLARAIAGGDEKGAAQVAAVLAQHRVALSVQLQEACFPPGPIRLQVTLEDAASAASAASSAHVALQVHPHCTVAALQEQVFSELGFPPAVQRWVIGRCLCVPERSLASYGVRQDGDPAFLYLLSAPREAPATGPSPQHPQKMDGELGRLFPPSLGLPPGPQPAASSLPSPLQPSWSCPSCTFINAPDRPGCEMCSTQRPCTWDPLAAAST

Turning to `O=C(CCl)Nc1cc(C(F)(F)F)cc(C(F)(F)F)c1` [KBO3], the “KB03_500 uM_percent_inhibition” value in assay [1] (500 uM) is given as 51%. Besides, the percent inhibition in assay [2] (500 uM) was determined as 26%; in assay [3] it was 20%. Moreover, the “KB03_100 uM_percent_inhibition” value in assay [4] (100 uM) was 36%.
Regarding `COc1ccc2c(c1)CCCN2C(=O)CCl` [KB02], the inhibition at 500 µM was 61% in assay [1] (read-out: KB02_500 uM_percent_inhibition) and 40% in assay [5]. In addition, in assay [5] (500 uM), the percent inhibition came out at 54%. Also, the inhibition at 100 µM was 23% in assay [6] (read-out: KB02_100 uM_percent_inhibition) and 3% in assay [7].
Take `C=CC(=O)N(c1ccccc1)c1ccc(Br)cc1` [KB05]: the inhibition at 100 µM in assay [2] (100 uM, read-out: percent inhibition) came out at 26%; in assay [3] (read-out: percent inhibition), 21%; in assay [6] (read-out: KB05_100 uM_percent_inhibition), 33%; in assay [4] (100 uM, read-out: KB05_100 uM_percent_inhibition), 36%; in assay [7], 25%. For the same molecule, the results for the percent inhibition in assay [2] (500 uM) and in assay [3] were 52% and 36%, respectively. In addition, the inhibition at 500 µM in assay [2] (500 uM, read-out: percent inhibition) was 47%; in assay [5], 44%; in assay [6] (setting [8]) it was 36%; in assay [4] (setting [8]), 48%. For the same molecule, in assay [4] (500 uM), the “KB05_500 uM_percent_inhibition” value is given as 57%.
